Literature values, collected in patent US20260096996A1, “PHARMACEUTICAL COMPOSITIONS OF TRETINOIN AND METHODS OF PRODUCING SUCH COMPOSITIONS” (Douglas Pharmaceuticals Limited, priority 2022, published 2026).

Experiments:
[1] = patients treated for APL

- patients experiencing nausea and vomiting [1]: More than half
- absolute bioavailability (in vivo): approximately 50%
- administered radiolabel recovered in the urine (orally administered, human): approximately two-thirds
- radioactivity recovered in the urine (within 72 hours, radiolabeled tretinoin 2.75 mg and 50 mg): approximately 63%
- radioactivity appeared in the feces (within 6 days, radiolabeled tretinoin 2.75 mg and 50 mg): 31%
Structure (SMILES): CC1=C(/C=C/C(C)=C/C=C/C(C)=C/C(=O)O)C(C)(C)CCC1 [tretinoin, all-trans retinoic acid]
